{
  "source": "patent US20120090043A1",
  "about": "“TARGETS FOR RETROVIRUS ASSOCIATED DISEASES” (priority 2009, published 2012)",
  "key": {"[1]": {"test_system": "HIV-1 LTR promoter transactivation by HIV-1 Tat", "assay": "Transactivation assay, HIV-1 LTR luciferase reporter with HIV-1 Tat", "assay_type": "cell-based", "conditions": "HEK293 cells co-transfected with pHIV1LTR-Luc, HIV-1 Tat and the human ORF; relative luciferase activity 24 h post-transfection; positive if >=2 or <=0.5 and p<0.05", "excerpt": "The plasmids pHIV1LTR-Luc or pHTLV1LTR-Luc containing a luciferase reporter gene under the control of the HIV-1 or HTLV-1 LTR promoters and plasmids expressing either HIV-1 Tat or HTLV-1 Tax and each human ORF found to interact with viral proteins were transfected into 10^4 HEK293 cells using the calcium phosphate method. Twenty-four hours post-transfection, cells were washed three times with PBS, lysed and luciferase activities determined from two independent transfection experiments in triplicate. We computed a paired t-test to assess the difference of the means between samples with and without the human interactor. For a trial to be considered positive, the relative luciferase activities has to be >=2 or <=0.5, and the p-value of the t-test<0.05.\nMany HIV/HTLV-human interactions in our data set (130/212) involved the retroviral transactivator proteins HTLV-1 Tax (57/212), HTLV-2 Tax2 (49/212), HIV-1 Tat (10/212) and HIV-2 Tat (14/212). Human proteins interacting with viral transactivators likely influence Tat or Tax transactivation. Expression vectors encoding human ORFs and HIV-1 Tat or HTLV-1 Tax proteins were tested in a transactivation reporter assay against reporter plasmids harboring HIV-1 or HTLV-1 viral promoter sequences cloned upstream of the luciferase reporter gene. In the controls Tat or Tax respectively activated HIV or HTLV LTR-directed gene expression. Co-transfection of interacting human ORFs identified 71 proteins (54% of the 131 human targets in our data set) that regulated HIV (26.7% of targets), HTLV (37.4% of targets) or both (9.9% of targets) LTR promoter activation by Tat or Tax (see Tables 7 and 8; Table 13 below containing quantitative data on the regulation of transactivation). Wherever not expressly specified, constructs used herein were generally made by sub-cloning entry clones from the ORFeome V3.1 into suitable destination vectors."}, "[2]": {"test_system": "HTLV-1 LTR promoter transactivation by HTLV-1 Tax", "assay": "Transactivation assay, HTLV-1 LTR luciferase reporter with HTLV-1 Tax", "assay_type": "cell-based", "conditions": "HEK293 cells co-transfected with pHTLV1LTR-Luc, HTLV-1 Tax and the human ORF; relative luciferase activity 24 h post-transfection; positive if >=2 or <=0.5 and p<0.05", "excerpt": "Twenty-four hours post-transfection, cells were washed three times with PBS, lysed and luciferase activities determined from two independent transfection experiments in triplicate. We computed a paired t-test to assess the difference of the means between samples with and without the human interactor. For a trial to be considered positive, the relative luciferase activities has to be >=2 or <=0.5, and the p-value of the t-test<0.05.\nExpression vectors encoding human ORFs and HIV-1 Tat or HTLV-1 Tax proteins were tested in a transactivation reporter assay against reporter plasmids harboring HIV-1 or HTLV-1 viral promoter sequences cloned upstream of the luciferase reporter gene. […] Wherever not expressly specified, constructs used herein were generally made by sub-cloning entry clones from the ORFeome V3.1 into suitable destination vectors."}, "TRAF2": {"test_system": "TRAF2", "assay": "Western blot of HIV-1 Gag induced TRAF2 degradation in HEK293T cells", "assay_type": "cell-based, human", "excerpt": "FIG. 8 illustrates (A) Western-blotting of HEK293T cell extracts transfected with expressing vectors for GST-TRAF2 or truncated mutants deltaTRAF2 and deltaRING and p55 GAG/GFP, as indicated. Cell extracts were immunobloted with anti-GST, anti-GFP and anti-actin antibodies. (B) Western-blotting of HEK293T cells transfected with expressing vectors for GST-TRAF2 or GST-deltaRING truncated mutant, p55 GAG/GFP and Myc-Ubiquitin, as indicated. Cell extracts were immunobloted with anti-GST, anti-Myc and anti-actin antibodies. (C) Cells were pretreated with the cathepsin B inhibitor CA-074Me (10 μM) or the proteasomal inhibitor MG-132 (1 μM) for 24 H. Cell lysates were analysed as in (B).\nTo further corroborate that HIV Gag protein targets TRAF2 for proteasomal degradation, we first co-expressed in HEK293 cells HIV-1 Gag and TRAF2 or its truncation mutants lacking the TRAF domain (ΔTRAF) required for upstream signaling, or lacking the RING domain (ΔRING) required for E3 ubiquitin ligase function and downstream signaling. […]\nIn the presence of HIV-1 Gag we observed reduction of TRAF2 and ΔTRAF protein levels but not with the RING domain truncated mutant (FIG. 8A). To test whether TRAF2-E3 ubiquitin ligase activity was affected by HIV1 Gag, we next co-transfected a Myc-Ubiquitin expressing vector and evaluated the levels of Myc-tagged cellular ubiquitylated proteins by immunoblotting. […]"}, "[3]": {"test_system": "HTLV-1 transformed cell line (MT4)", "assay": "Quantitative RT-PCR of HTLV-1 mRNA in MT4 cells after γ-secretase (Notch pathway) inhibition", "assay_type": "cell-based", "conditions": "1 μM, 48 hours, vs vehicle (0.5% DMSO), mRNA relative to GAPDH", "method": "FIG. 9 illustrates relative HTLV1-HBZ, -Gag and -Tax mRNA expression following MT4 cells treatment with vehicle (0.5% DMSO) or 1 μM of γ-secretase inhibitor L685,458. Viral mRNA expression data are calculated relative to GAPDH mRNA expression data as 2̂(CT(GAPDH)-CT(HBZ/Gag/Tax)) over three times triplicate experiments for each gene.\nHTLV-1 transformed cell line (MT4) from Dr. Douglas Richman (Harada et al. Science, 1985, col. 229, p. 563-566) was obtained through the AIDS Research and Reference Reagent Program, Division of AIDS, NIAID, NIH. MT4 cells were cultured in RPMI supplemented with 10% fetal bovine serum and antibiotics. MT-4 cells were treated for 48 hours with a γ-secretase inhibitor (L-685,458) (Shearman et al. Biochemistry, 2000, vol. 39, 8698-8704). at 1 μM or vehicle (0.5% DMSO). Total RNA were then isolated by Trizol method, subjected to Dnase treatment and cDNAs synthesized using the RevertAid First Strand cDNA Synthesis kit according to the manufacturer instructions (Fermentas). Quantitative Real-time PCR for GAPDH, HBZ, Gag and Tax expression was performed on StepOne instrument (Applied Biosystem) using SYBR green dye (Eurogentec). Viral mRNA expression data are calculated relative to GAPDH mRNA expression data as 2̂(CT(GAPDH)—CT(HBZ/Gag/Tax)) over three times triplicate experiments for each gene, and differences were assessed through one-tailed Student's t-test.\nTo directly assess the involvement of the Notch pathway in viral infection, we treated HTLV-1 transformed cell line (MT4) with a γ-secretase inhibitor (GSI) (L-685,458) and tested whether inhibition of the Notch pathway could influence HTLV-1 expression in MT4 cell line."}},
  "note": "Peptide text beside a SMILES is read from it. * marks the point of attachment. Cbz = O=C(OCc1ccccc1)*",
  "data": [
    {"compound": "HOXA3: human host interactor protein, Gene ID 3200, expressed from transfected ORF vector", "values": [
      {"measurement": "HIV_LTR transactiv.", "setting": "[1]", "value": 0.29, "unit": "fold change"},
      {"measurement": "HTLV_LTR transactiv.", "setting": "[2]", "value": 0.25, "unit": "fold change"}
    ]},
    {"compound": "DVL2: human host interactor protein, Gene ID 1856, expressed from transfected ORF vector", "values": [
      {"measurement": "HIV_LTR transactiv.", "setting": "[1]", "value": 0.40, "unit": "fold change"}
    ]},
    {"compound": "CC(C)C[C@@H](C=O)NC(=O)[C@H](CC(C)C)NC(=O)[C@H](CC(C)C)NC(=O)OCc1ccccc1", "note": "[MG132] (Cbz-Leu-Leu-Leu-aldehyde)", "values": [
      {"measurement": "HIV1-Gag induced degradation of TRAF2", "setting": "TRAF2; FIG. 6", "value": "not inhibited"},
      {"measurement": "HIV-1 Gag induced degradation of TRAF2", "setting": "TRAF2; HEK293T cells pretreated with 1 μM for 24 H, FIG. 8C", "value": "could be blocked"}
    ]},
    {"compound": "PSMF1: human host interactor protein, Gene ID 9491, expressed from transfected ORF vector", "values": [
      {"measurement": "HTLV_LTR transactiv.", "setting": "[2]", "value": 14.83, "unit": "fold change"}
    ]},
    {"compound": "KCTD1: human host interactor protein, Gene ID 284252, expressed from transfected ORF vector", "values": [
      {"measurement": "HTLV_LTR transactiv.", "setting": "[2]", "value": 0.42, "unit": "fold change"}
    ]},
    {"compound": "BHLHB2: human host interactor protein, Gene ID 8553, expressed from transfected ORF vector", "values": [
      {"measurement": "HTLV_LTR transactiv.", "setting": "[2]", "value": 0.20, "unit": "fold change"}
    ]},
    {"compound": "NOS3: human host interactor protein, Gene ID 4846, expressed from transfected ORF vector", "values": [
      {"measurement": "HTLV_LTR transactiv.", "setting": "[2]", "value": 0.45, "unit": "fold change"}
    ]},
    {"compound": "CC(C)C[C@H](NC(=O)[C@H](Cc1ccccc1)C[C@@H](O)[C@H](Cc1ccccc1)NC(=O)OC(C)(C)C)C(=O)N[C@@H](Cc1ccccc1)C(N)=O", "note": "[L-685,458]", "values": [
      {"measurement": "HTLV-1 Tax1 expression", "setting": "[3]; p<0.003", "value": "significantly lowers"},
      {"measurement": "HTLV-1 Gag expression", "setting": "[3]; p<0.04", "value": "significantly lowers"},
      {"measurement": "HTLV-1 HBZ expression", "setting": "[3]; p<2.1E-5", "value": "significantly lowers"}
    ]},
    {"compound": "CRX: human host interactor protein, Gene ID 1406, expressed from transfected ORF vector", "values": [
      {"measurement": "HIV_LTR transactiv.", "setting": "[1]", "value": 0.24, "unit": "fold change"}
    ]},
    {"compound": "PCBP1: human host interactor protein, Gene ID 5093, expressed from transfected ORF vector", "values": [
      {"measurement": "HTLV_LTR transactiv.", "setting": "[2]", "value": 0.44, "unit": "fold change"}
    ]},
    {"compound": "FXR2: human host interactor protein, Gene ID 9513, expressed from transfected ORF vector", "values": [
      {"measurement": "HTLV_LTR transactiv.", "setting": "[2]", "value": 0.38, "unit": "fold change"}
    ]},
    {"compound": "HOXB9: human host interactor protein, Gene ID 3219, expressed from transfected ORF vector", "values": [
      {"measurement": "HTLV_LTR transactiv.", "setting": "[2]", "value": 3.69, "unit": "fold change"}
    ]},
    {"compound": "LOC91661: human host interactor protein, Gene ID 91661, expressed from transfected ORF vector", "values": [
      {"measurement": "HIV_LTR transactiv.", "setting": "[1]", "value": 0.16, "unit": "fold change"}
    ]},
    {"compound": "C8orf32: human host interactor protein, Gene ID 55093, expressed from transfected ORF vector", "values": [
      {"measurement": "HTLV_LTR transactiv.", "setting": "[2]", "value": 0.26, "unit": "fold change"}
    ]},
    {"compound": "UBE2I: human host interactor protein, Gene ID 7329, expressed from transfected ORF vector", "values": [
      {"measurement": "HIV_LTR transactiv.", "setting": "[1]", "value": 3.34, "unit": "fold change"}
    ]},
    {"compound": "OTX2: human host interactor protein, Gene ID 5015, expressed from transfected ORF vector", "values": [
      {"measurement": "HTLV_LTR transactiv.", "setting": "[2]", "value": 7.37, "unit": "fold change"}
    ]},
    {"compound": "ZMAT1: human host interactor protein, Gene ID 84460, expressed from transfected ORF vector", "values": [
      {"measurement": "HIV_LTR transactiv.", "setting": "[1]", "value": 0.20, "unit": "fold change"}
    ]}
  ]
}
